Assay results: publication PMC10714400, “Antimicrobial Peptide–Peptoid Hybrids with and without Membrane Disruption” (ACS Infectious Diseases, 2023)
≈ marks a conversion by molar mass, not a printed value. Like-named read-outs stand apart in the source and are kept apart here. Where a SMILES comes first, the peptide text is derived from it. [ ]: non-standard residue; d: D form. Nlys = NCCCCNCC(=O)O

Columns and labels:
S. maltophilia = test system: S. maltophilia
Summary of the method: (§1)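 MTT added (20–30 min, room temperature); MIC read by eye as lowest concentration inhibiting visible growth (yellow). Polymyxin B positive control from 16 μg/mL.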

B. cenocepacia = settings: pH 7.4
Summary of the method: as §1

S. epidermis = test system: S. epidermis
Summary of the method: as §1

S. aureus Newman = settings: Newman
Summary of the method: as §1

P. aeruginosa PA14 = test system: P. aeruginosa PA14
Summary of the method: as §1

[1] = test system: human red blood cells (hRBC); experiment: Minimum hemolytic concentration (MHC); format: cell-based
Text: We also measured minimal hemolysis concentrations (MHC) on human red blood cells by serial 2-fold dilution as an indication of toxicity against eukaryotic cells (Table 1).

HEK293 cells = experiment: Cell viability assay by Alamar blue; settings: read-out: Toxicity on HEK293 cells; CSV
Summary of the method: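 Alamar blue viability readout on HEK293 cells grown in DMEM high glucose and A549 cells grown in RPMI-1640, each with 10% FBS and 1% penicillin/streptomycin, at 37 °C under 5% CO2. Mean ± SD, n = 3.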

S. aureus COL (MRSA) = test system: S. aureus COL (MRSA)
Summary of the method: as §1

E. cloacae = test system: E. cloacae
Summary of the method: as §1

K. pneumoniae OXA-48 = test system: K. pneumoniae OXA-48
Summary of the method: as §1

[2] = test system: ZEM9A (clinical MDR P. aeruginosa isolate)
Summary of the method: as §1

PA14 4.18 (pmrB) = test system: PA14 4.18 (pmrB)
Summary of the method: as §1

PA14 2P4 (pmrB) = test system: PA14 2P4 (pmrB)
Summary of the method: as §1

E. coli W3110 = test system: E. coli W3110
Summary of the method: as §1

PA14 4.13 (phoQ) = test system: PA14 4.13 (phoQ)
Summary of the method: as §1

[3] = test system: ZEM-1A (clinical MDR P. aeruginosa isolate)
Summary of the method: as §1

Structure (SMILES): CC(C)C[C@H](NC(=O)[C@H](CC(C)C)NC(=O)[C@H](CC(C)C)NC(=O)[C@H](CCCCN)NC(=O)[C@H](CC(C)C)NC(=O)[C@H](CC(C)C)NC(=O)CN(CCCCN)C(=O)[C@H](CC(C)C)NC(=O)[C@H](CC(C)C)NC(=O)CN(CCCCN)C(=O)CNCCCCN)C(N)=O [EB6, kkLLkLLKLLL] (H-[Nlys][Nlys]LL[Nlys]LLKLLL-NH2)
- MIC S. maltophilia, full MH at pH 7.4 (S. maltophilia; 4 h, pH 7.4): 3 ug/mL
- MIC S. maltophilia (S. maltophilia; 4 h, pH 8.5): 2 to 4 µg/mL
- MIC S. maltophilia (S. maltophilia; pH 7.4): 2 to 4 µg/mL
- MIC B. cenocepacia, full MH at pH 7.4 (B. cenocepacia; 4 h): >32 ug/mL
- MIC B. cenocepacia (B. cenocepacia): >32 µg/mL
- MIC S. epidermis, full MH at pH 7.4 (S. epidermis; 4 h, pH 7.4): 3 ug/mL
- MIC S. epidermis (S. epidermis; 4 h, pH 8.5): 2 µg/mL (≈ 1.51 µM)
- MIC S. epidermis (S. epidermis; pH 7.4): 2 to 4 µg/mL
- MIC S. aureus Newman, full MH at pH 7.4 (S. aureus Newman; 4 h, pH 7.4): 8 ug/mL
- MIC S. aureus Newman (S. aureus Newman; 4 h, pH 8.5): 2 µg/mL (≈ 1.51 µM)
- MIC S. aureus Newman (S. aureus Newman; pH 7.4): 8 µg/mL (≈ 6.05 µM)
- MIC P. aeruginosa PA14, full MH at pH 7.4 (P. aeruginosa PA14; PA14, 4 h, pH 7.4): 3 ug/mL
- MIC P. aeruginosa PA14 (P. aeruginosa PA14; PA14, pH 7.4): 2 to 4 µg/mL
- MIC P. aeruginosa PA14 (P. aeruginosa PA14; PA14, pH 8.5): 2 µg/mL (≈ 1.51 µM)
- MHC [1]: 250 µg/mL
- MHC (hemolysis) ([1]; red cells of human): 250 to 1000 µg/mL
- IC50 (HEK293 cells): 54 ± 1 µM
- MIC S. aureus COL (MRSA), full MH at pH 7.4 (S. aureus COL (MRSA); COL, 4 h, pH 7.4): 8 ug/mL
- MIC S. aureus COL (MRSA) […] 7.4 (S. aureus COL (MRSA); Table S2, […] MH, pH 7.4): 2 µg/mL (≈ 1.51 µM)
- MIC S. aureus COL (MRSA) […] 8.5 (S. aureus COL (MRSA); Table S2, […] MH, pH 8.5): 2 µg/mL (≈ 1.51 µM)
- MIC S. aureus COL (MRSA) Full MH 7.4 (S. aureus COL (MRSA); Table S2, full MH, pH 7.4): 8 µg/mL (≈ 6.05 µM)
- MIC S. aureus COL (MRSA) Full MH 8.5 (S. aureus COL (MRSA); Table S2, full MH, pH 8.5): 16 µg/mL (≈ 12.1 µM)
- MIC E. cloacae, full MH at pH 7.4 (E. cloacae; 4 h, pH 7.4): 4 ug/mL
- MIC E. cloacae (E. cloacae; Table S3, […] MH at pH 8.5): 4 µg/mL (≈ 3.03 µM)
- MIC K. pneumoniae OXA-48, […] MH at pH 8.5 (K. pneumoniae OXA-48; CSV, […] MH at pH 8.5): 8 ug/mL
- MIC K. pneumoniae OXA-48, full MH at pH 7.4 (K. pneumoniae OXA-48; CSV, full MH at pH 7.4): 8 ug/mL
- MIC K. pneumoniae OXA-48 (K. pneumoniae OXA-48; Table S3, […] MH at pH 8.5): 8 µg/mL (≈ 6.05 µM)
- MIC P. aeruginosa ZEM9A, […] MH at pH 8.5 ([2]; CSV, […] MH at pH 8.5): 2 ug/mL
- MIC P. aeruginosa ZEM9A, full MH at pH 7.4 ([2]; CSV, full MH at pH 7.4): 4 ug/mL
- MIC ZEM9A ([2]; MH pH 7.4, 16–20 h at 37 °C): 4 µg/mL (≈ 3.03 µM)
- MIC P. aeruginosa ZEM9A ([2]; Table S3, […] MH at pH 8.5): 2 µg/mL (≈ 1.51 µM)
- MIC P. aeruginosa PA14 4.18, […] MH at pH 8.5 (PA14 4.18 (pmrB); CSV, […] MH at pH 8.5): 2 ug/mL
- MIC P. aeruginosa PA14 4.18, full MH at pH 7.4 (PA14 4.18 (pmrB); CSV, full MH at pH 7.4): 16 ug/mL
- MIC PA14 4.18 (pmrB) (PA14 4.18 (pmrB); MH pH 7.4, 16–20 h at 37 °C): 16 µg/mL (≈ 12.1 µM)
- MIC P. aeruginosa PA14 4.18 (PA14 4.18 (pmrB); Table S3, […] MH at pH 8.5): 2 µg/mL (≈ 1.51 µM)
- MIC P. aeruginosa PA14 2P4, […] MH at pH 8.5 (PA14 2P4 (pmrB); CSV, […] MH at pH 8.5): 2 ug/mL
- MIC P. aeruginosa PA14 2P4, full MH at pH 7.4 (PA14 2P4 (pmrB); CSV, full MH at pH 7.4): 32 ug/mL
- MIC PA14 2P4 (pmrB) (PA14 2P4 (pmrB); MH pH 7.4, 16–20 h at 37 °C): 32 µg/mL (≈ 24.2 µM)
- MIC P. aeruginosa PA14 2P4 (PA14 2P4 (pmrB); Table S3, […] MH at pH 8.5): 2 µg/mL (≈ 1.51 µM)
- MIC E. coli W3110, […] MH at pH 7.4 (E. coli W3110; CSV, […] MH at pH 7.4): 2 ug/mL
- MIC E. coli W3110, […] MH at pH 8.5 (E. coli W3110; CSV, […] MH at pH 8.5): 2 ug/mL
- MIC E. coli W3110, full MH at pH 7.4 (E. coli W3110; CSV, full MH at pH 7.4): 2 ug/mL
- MIC E. coli W3110 […] 7.4 (E. coli W3110; Table S2, […] MH, pH 7.4): 2 µg/mL (≈ 1.51 µM)
- MIC E. coli W3110 […] 8.5 (E. coli W3110; Table S2, […] MH, pH 8.5): 2 µg/mL (≈ 1.51 µM)
- MIC E. coli W3110 Full MH 7.4 (E. coli W3110; Table S2, full MH, pH 7.4): 2 µg/mL (≈ 1.51 µM)
- MIC E. coli W3110 Full MH 8.5 (E. coli W3110; Table S2, full MH, pH 8.5): 8 µg/mL (≈ 6.05 µM)
- MIC E. coli W3110 […] (E. coli W3110; diluted MH ([…] MH, pH 8.5) per Table 1 footnote b, 16–20 h at 37 °C): 2 µg/mL (≈ 1.51 µM)
- MIC P. aeruginosa PA14 4.13, […] MH at pH 8.5 (PA14 4.13 (phoQ); CSV, […] MH at pH 8.5): 2 ug/mL
- MIC P. aeruginosa PA14 4.13, full MH at pH 7.4 (PA14 4.13 (phoQ); CSV, full MH at pH 7.4): 4 ug/mL
- MIC PA14 4.13 (phoQ) (PA14 4.13 (phoQ); MH pH 7.4, 16–20 h at 37 °C): 4 µg/mL (≈ 3.03 µM)
- MIC P. aeruginosa PA14 4.13 (PA14 4.13 (phoQ); Table S3, […] MH at pH 8.5): 2 µg/mL (≈ 1.51 µM)
- MIC P. aeruginosa ZEM-1A, […] MH at pH 8.5 ([3]; CSV, […] MH at pH 8.5): 3 ug/mL
- MIC P. aeruginosa ZEM-1A, full MH at pH 7.4 ([3]; CSV, full MH at pH 7.4): 2 ug/mL
- MIC ZEM-1A ([3]; MH pH 7.4, 16–20 h at 37 °C): 2 µg/mL (≈ 1.51 µM)
- MIC P. aeruginosa ZEM-1A ([3]; Table S3, […] MH at pH 8.5): 2 to 4 µg/mL
